Read-outs that look alike come from different tables or passages of the source.
Columns and labels:
blood glucose level [1] = assay: Hypoglycemic activity in obese diabetic mice (Table 1); assay type: in vivo, male viable yellow obese-diabetic mice; conditions: for response vs control in vivo at 50 mg/kg / response vs control in vivo at 10 mg/kg / response vs control in vivo at 25 mg/kg: Mus musculus, ip, intraperitoneal
Summary of the method: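 Male viable yellow obese-diabetic mice, six per group, dosed intraperitoneally once with compound in saline containing 2% Emulphor. Blood glucose measured by glucose oxidase before dosing and at 2 and 4 h. Values are the 2 h and 4 h glucose as % of pre-dose level.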

Human liver cathepsin D = molecular target: T1, Human liver cathepsin D (Homo sapiens, UniProt P07339); assay: Cathepsin D inhibition, fluorometric assay (Tables 5 and 6); assay type: biochemical; conditions: for inhibition at 8.3 µg/mL (stock): Compound Stock Concentration 8.3 μg/ml; for inhibition at 10 µg/mL (stock): Compound Stock Concentration 10.0 μg/ml; for inhibition at 4.15 µg/mL (stock): Compound Stock Concentration 4.15 μg/ml
T1 construct: purchased Athens Research and Technology, Athens, Ga; host or cells: human liver
T1 sequence (P07339 169-412 limits assumed): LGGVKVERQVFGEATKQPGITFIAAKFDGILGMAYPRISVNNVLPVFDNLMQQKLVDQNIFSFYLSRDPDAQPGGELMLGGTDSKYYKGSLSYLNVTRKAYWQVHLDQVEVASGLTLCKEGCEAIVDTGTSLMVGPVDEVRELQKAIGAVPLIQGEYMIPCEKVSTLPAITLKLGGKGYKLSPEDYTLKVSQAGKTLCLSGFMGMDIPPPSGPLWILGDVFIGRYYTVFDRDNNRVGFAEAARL
T1 sequence (P07339 65-161 limits assumed): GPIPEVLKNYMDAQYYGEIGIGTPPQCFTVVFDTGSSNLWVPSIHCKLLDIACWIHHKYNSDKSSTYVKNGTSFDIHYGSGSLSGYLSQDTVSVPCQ
Summary of the method: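 Human liver cathepsin D at 500 ng/mL in 200 mM NaOAc pH 4.5, 150 mM NaCl, incubated 30 minutes at 37° C. Reaction stopped with microsomal leucine aminopeptidase (pH 8.0), which over two hours at 37° C releases AMC from cleavage products for fluorometric reading; aminopeptidase inhibition checked with Leu-pNA.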

β-amyloid protein = β-amyloid protein production inhibition in 293 751 SWE and CHO 751 SWE cells, ELISA (Table 7); assay type: cell-based; conditions: normalized for cytotoxicity; for inhibition at 10 µg/mL (stock): Compound Stock Concentration 10.0 μg/ml; for inhibition at 0.31 µg/mL (stock): Compound Stock Concentration 0.31 μg/ml; for inhibition at 0.62 µg/mL (stock): Compound Stock Concentration 0.62 μg/ml; for inhibition at 1.25 µg/mL (stock): Compound Stock Concentration 1.25 μg/ml; for inhibition at 2.5 µg/mL (stock): Compound Stock Concentration 2.5 μg/ml; for inhibition at 5 µg/mL (stock): Compound Stock Concentration 5.0 μg/ml
Method: Two cell lines (human kidney cell line 293 and Chinese hamster ovary cell line CHO) were stably transfected with the gene for APP751 containing the double mutation Lys-651-Met-652 to Asn-651-Leu-652 (APP-751 numbering) commonly called the Swedish mutation using the method described in Citron et al., Nature 360:672-674 (1992). The transfected cell lines were designated as 293 751 SWE and CHO 751 SWE, and were plated in Corning 96 well plates at 2.5×10^4 or 1×10^4 cells per well respectively in Dulbecco's minimal essential media (DMEM) plus 10% fetal bovine serum. […] These compound stocks were prepared by dissolving a sufficient quantity of the particular compound to be tested in DMSO such that various concentrations were obtained. After this pretreatment period, the conditioned media was removed and replaced with fresh conditioned media and the cells were incubated for an additional two hours.
After treatment, plates were centrifuged in a Beckman GPR at 1200 rpm for five minutes at room temperature to pellet cellular debris from the conditioned media. From each well, 100 μL of conditioned media were transferred into an ELISA plate precoated with antibody 266 [Seubert et al., Nature, 359:325-327 (1992)] and stored at 4° C. overnight prior to the completion of the ELISA assay the next day.
Cytotoxic effects of the compounds were measured by a modification of the method of Hansen et al., J. Immun. Meth. 119:203-210 (1989). To the cells remaining in the tissue culture plate, was added 25 μL of a 3-(4,5-dimethylthiazol-2-yl)-2,5-diphenyltetrazolium bromide (MTT) stock solution (5 mg/mL) to a final concentration of 1 mg/mL. Cells were incubated at 37° C. for one hour, and cellular activity was stopped by the addition of an equal volume of MTT lysis buffer (20% w/v sodium dodecylsulfate in 50% DMF, pH 4.7). Complete extraction was achieved by overnight shaking at room temperature. The difference in the OD562nm and the OD650nm was measured in a Molecular Devices UVmax microplate reader as an indicator of the cellular viability.
The results of the β-amyloid protein ELISA were fit to a standard curve and expressed as ng/mL β-amyloid protein peptide. In order to normalize for cytotoxicity, these β-amyloid protein results were divided by the cytotoxicity results and expressed as a percentage of the results from a drug-free control.

blood glucose level [2] = assay: Hypoglycemic activity in normal fed rats (Table 2); assay type: in vivo, male Sprague Dawley rats; conditions: Rattus norvegicus, 200 mg/kg, oral
Method: The procedure used in this test system is described below.
(§1) The desired dose level of each test formulation was administered to four rats by oral […] at the beginning of the experiment. Blood glucose levels were determined immediately before the first dose and at 3 and 5 hours thereafter by an enzymatic procedure employing glucose oxidase and peroxidase coupled with a chromogenic oxygen acceptor. A mean was taken of the 4 values obtained before the first dose and at the 3 and 5 hour intervals.

[3] = system: plasma glucose concentration; assay: Long-term hypoglycemic activity, compound in diet, A^vy /a mice (Table 4); assay type: in vivo, viable yellow mouse; conditions: 0.1% in diet, Male A^vy /a (Harlan)
Method: (§2) Finally, the long-term hypoglycemic activity of the compounds of the present invention was tested in yet another in vivo test system. This long-term test system entailed incorporating test compound into the test animal's diet at various concentrations (control animal's diet contained no test compound). Such diet was then fed to the test or control animals for either 14 or 21 days. Each test or control animal was then bled from the tail (200-400 μl sample of blood) at 0 (before diet started), 7, 14 and, if appropriate, 21 and 28 days after diet administration was started. Plasma samples were then obtained from each blood sample collected and the glucose concentration of such plasma samples was determined enzymatically.
(§3) Columns 4-8 provide the plasma glucose concentration at days 0, 7, 14 and, if appropriate, 21 and 28, respectively, for the animals tested. Glucose lowering was not associated with depressed diet consumption.

blood glucose level [4] = assay: Hypoglycemic activity in obese diabetic Zucker rats (Table 3); assay type: in vivo, obese diabetic Zucker rat (Zucker Diabetic Fatty Rat); conditions: 167 mg/kg, oral
Method: as §1, with “Male Sprague Dawley rats (Charles River Laboratories) weighing 175-200 g were used in this test system. […] The” for “The”
The procedure used in this test system is the same as that described for the normal fed rat test system, above. The format of Table 3 is the same as that used in Table 2.

[5] = system: plasma glucose concentration; assay: Long-term hypoglycemic activity, compound in diet, ZDF rats (Table 4); assay type: in vivo, 8 week old male Zucker Diabetic Fatty rat; conditions: 0.1% in diet
Method: as §2, §3

[6] = 2 h, 2 hrs, read-out: Percent of Initial Blood Glucose Level After 2 hrs.
[7] = 4 h, 4 hrs, read-out: Percent of Initial Blood Glucose Level After 4 hrs.
[8] = 3 hrs, read-out: Percent of Initial Blood Glucose Level After 3 hrs.
[9] = 5 hrs, read-out: Percent of Initial Blood Glucose Level After 5 hrs.

Structure (SMILES)	response vs control in vivo at 50 mg/kg (blood glucose level [1]; [6]) [%]	response vs control in vivo at 50 mg/kg (blood glucose level [1]; [7]) [%]	IC50 (Human liver cathepsin D) [µM]	inhibition at 8.3 µg/mL (stock) (Human liver cathepsin D) [%]	inhibition at 10 µg/mL (stock) (Human liver cathepsin D) [%]	inhibition at 10 µg/mL (stock) (β-amyloid protein) [%]	response vs control in vivo at 200 mg/kg (blood glucose level [2]; [8]) [%]	response vs control in vivo at 200 mg/kg (blood glucose level [2]; [9]) [%]	inhibition at 4.15 µg/mL (stock) (Human liver cathepsin D) [%]	Plasma Glucose Concentration ([5]; day 0 (before diet started)) [mg/dL]	Plasma Glucose Concentration ([5]; day 7) [mg/dL]	Plasma Glucose Concentration ([5]; day 14) [mg/dL]	other results
O=C1NC(=S)SC1=Cc1ccc(Oc2ccccc2)cc1 [Example 5, 5-[(4-phenoxyphenyl)methylene]-2-thioxo-4-thiazolidinone]	79 ± 4	71 ± 3	3.6	100	76	47	–	–	–	–	–	–	–
CCCCCCCOc1ccc(C=C2SC(=S)NC2=O)cc1OC [Example 31, 5-[(3-methoxy-4-heptoxyphenyl)methylene]-2-thioxo-4-thiazolidinone]	76 ± 7	76 ± 5	1.9	–	88.5	57	95	92	69.5	–	–	–	inhibition at 0.31 µg/mL (stock) (β-amyloid protein): 0%; inhibition at 0.62 µg/mL (stock) (β-amyloid protein): 7%; inhibition at 1.25 µg/mL (stock) (β-amyloid protein): 15%; inhibition at 2.5 µg/mL (stock) (β-amyloid protein): 28%; inhibition at 5 µg/mL (stock) (β-amyloid protein): 37%
CCOc1ccc(C=C2SC(=S)NC2=O)cc1OCC [Example 38, 5-[(3,4-diethoxyphenyl)methylene]-2-thioxo-4-thiazolidinone]	–	–	–	–	–	–	90	74	–	–	–	–	Plasma Glucose Concentration ([3]; day 0 (before diet started)): 340 mg/dL; Plasma Glucose Concentration ([3]; day 7): 351 mg/dL; Plasma Glucose Concentration ([3]; day 14): 328 mg/dL; Plasma Glucose Concentration ([3]; day 21): 303 mg/dL; Plasma Glucose Concentration ([3]; day 28): 331 mg/dL; response vs control in vivo at 10 mg/kg (blood glucose level [1]; [6]): 72 ± 4%; response vs control in vivo at 25 mg/kg (blood glucose level [1]; [6]): 69 ± 9%; response vs control in vivo at 10 mg/kg (blood glucose level [1]; [7]): 71 ± 6%; response vs control in vivo at 25 mg/kg (blood glucose level [1]; [7]): 65 ± 7%
O=C1NC(=S)SC1=Cc1ccc(-c2ccccc2)cc1 [Example 42, 5-[[(1,1'-biphenyl)-4-yl]methylene]-2-thioxo-4-thiazolidinone]	87 ± 8	70 ± 8	1.7	–	87.5	51	–	–	78	–	–	–	inhibition at 0.31 µg/mL (stock) (β-amyloid protein): 8%; inhibition at 0.62 µg/mL (stock) (β-amyloid protein): 11%; inhibition at 1.25 µg/mL (stock) (β-amyloid protein): 14%; inhibition at 2.5 µg/mL (stock) (β-amyloid protein): 16%; inhibition at 5 µg/mL (stock) (β-amyloid protein): 35%
CCCCCOc1ccc(C=C2SC(=S)NC2=O)cc1 [Example 47, 5-[(4-pentoxyphenyl)methylene]-2-thioxo-4-thiazolidinone]	99 ± 14	76 ± 8	5.2	–	–	–	82	73	60.5	–	–	–	ability to lower blood glucose levels in mammals (blood glucose level [1]; compared to structurally similar compounds known in the art, in words): surprising ability to lower blood glucose levels in mammals; Percent of Initial Blood Glucose Level After 3 hrs. (blood glucose level [4]; 3 hrs): 74%; Percent of Initial Blood Glucose Level After 5 hrs. (blood glucose level [4]; 5 hrs): 66%
CCCCCOc1ccc(CC2SC(=S)NC2=O)cc1OC (stereo not drawn) [Example 64, 5-[(3-methoxy-4-pentoxyphenyl)methyl]-2-thioxo-4-thiazolidinone]	–	–	–	–	–	–	91	89	–	339	187	182	–
CCCCCOc1c(OC)cc(C=C2SC(=S)NC2=O)cc1OC [Example 70, 5-[(3,5-dimethoxy-4-pentoxyphenyl)methylene]-2-thioxo-4-thiazolidinone]	–	–	5.4	–	–	38	–	–	66	300	190	195	–
CC(C)(C)c1cc(C=C2SC(=S)NC2=O)cc(CSc2ccccc2)c1O [Example 71]	–	–	–	94	76	65	–	–	–	311	237	232	IC50 (Human liver cathepsin D; 50% inhibition of cathepsin D): 2.1 µM
O=C1NC(=S)SC1=Cc1cccc(Oc2ccccc2)c1 [Example 77, 5-[(3-phenoxyphenyl)methylene]-2-thioxo-4-thiazolidinone]	–	–	3.7	–	87	25	–	–	64	–	–	–	–
CCCCCCCOc1ccc(C=C2SC(=S)N(N(C)C)C2=O)cc1OC [Example 81, 5-[(3-methoxy-4-heptoxyphenyl)methylene]-2-thioxo-3-dimethylamino-4-thiazolidinone]	–	–	319	21	–	100	–	–	–	–	–	–	–

Reference: patent US5523314A, “Compounds useful as hypoglycemic agents and for treating Alzheimer's disease” (priority 1994, dated 1996)
